For assay [1], the target named is T1, Sterol O-acyltransferase 1 (Rattus norvegicus, UniProt O70536).
T1 sequence (O70536 whole entry): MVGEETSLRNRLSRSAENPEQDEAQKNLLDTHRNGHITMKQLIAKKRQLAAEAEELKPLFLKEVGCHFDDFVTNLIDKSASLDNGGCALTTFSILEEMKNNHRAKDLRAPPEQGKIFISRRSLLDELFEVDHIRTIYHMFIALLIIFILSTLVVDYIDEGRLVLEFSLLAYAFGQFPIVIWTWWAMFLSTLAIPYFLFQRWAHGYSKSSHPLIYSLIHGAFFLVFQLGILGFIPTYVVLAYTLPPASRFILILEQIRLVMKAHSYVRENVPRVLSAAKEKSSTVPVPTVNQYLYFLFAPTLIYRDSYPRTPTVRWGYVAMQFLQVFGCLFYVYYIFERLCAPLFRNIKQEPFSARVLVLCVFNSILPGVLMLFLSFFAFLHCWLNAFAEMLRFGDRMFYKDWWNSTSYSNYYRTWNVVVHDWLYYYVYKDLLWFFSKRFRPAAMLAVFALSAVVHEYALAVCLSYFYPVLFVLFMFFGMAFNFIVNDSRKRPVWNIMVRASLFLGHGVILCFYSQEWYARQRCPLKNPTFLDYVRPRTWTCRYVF
In words: In vitro inhibitory activity against acyl coenzyme A:cholesterol acyltransferase 1 in microsomes of rat liver.

In the next assay the test system is Rattus norvegicus. The assay can be described thus: Acute in vivo activity measured by total plasma cholesterol concentration levels (TC) at 30 mg/kg dose. It is filed as functional.
In assay [2] the target is T2, Sterol O-acyltransferase 1 (Rattus norvegicus) (UniProt O70536).
T2 sequence (whole entry): T1 sequence (O70536 whole entry)
The assay can be described thus: Acute in vivo activity was measured by the total plasma cholesterol concentration levels(TC) at dose 3 mg/kg. It is filed as functional, organism-based. Also on record: dose 3 mg/kg.

Turning to `Cc1cccc(C)c1OS(=O)(=O)NC(=O)Oc1c(C(C)C)cccc1C(C)C`, the IC50 in assay [1] is greater than 50 µM. Further, the “Delta TC” value is -58% in the assay with Rattus norvegicus and -37% in assay [2].

On to `CCc1cccc(CC)c1COC(=O)NS(=O)(=O)Oc1c(C(C)C)cccc1C(C)C`, for which the IC50 in assay [1] came out at 20 µM. For the same compound, in the assay on Rattus norvegicus, the “Delta TC” value was -2%.

In turn, `CCOC(=O)[N-]S(=O)(=O)Oc1c(C(C)C)cccc1C(C)C.[Na+]` returned an IC50 in assay [1] greater than 50 µM. The “Delta TC” value in the assay with Rattus norvegicus was 17%.

The compound `CC(C)c1cc([N+](=O)[O-])cc(C(C)C)c1OC(=O)NS(=O)(=O)Oc1c(C(C)C)cccc1C(C)C` gave an IC50 in assay [1] greater than 50 µM. The “Delta TC” value with Rattus norvegicus is 18%.

Take `CC(C)c1cccc(C(C)C)c1OS(=O)(=O)NC(=O)Oc1c(C(C)(C)C)cc(CN(C)C)cc1C(C)(C)C`: in assay [1], half-maximal inhibition (IC50) was put at 22 µM. Besides, the “Delta TC” value in the assay with Rattus norvegicus came out at 2%.

Turning to `CC(C)c1ccccc1OC(=O)NS(=O)(=O)Oc1c(C(C)C)cccc1C(C)C`, the IC50 in assay [1] is greater than 50 µM. Besides, the “Delta TC” value with Rattus norvegicus was -37%.

With `CC(C)c1cccc(C(C)C)c1OC(=O)NS(=O)(=O)Oc1ccc(F)cc1F`, in assay [1], the IC50 was greater than 50 µM. In the assay with Rattus norvegicus, the “Delta TC” value is recorded as -11%.

Compound `CC(C)c1cccc(C(C)C)c1OS(=O)(=O)NC(=O)Oc1ccc(Cl)cc1` had a half-inhibitory concentration (IC50) in assay [1] of 97 µM. Moreover, the “Delta TC” value with Rattus norvegicus was -8%.

Take `CCCCCCOS(=O)(=O)NC(=O)Oc1c(C(C)(C)C)cc(C)cc1C(C)(C)C`: the IC50 in assay [1] worked out at 95 µM. Moreover, the “Delta TC” value in the assay on Rattus norvegicus was -56%; in assay [2], -14%.

With `CC(C)c1cccc(C(C)C)c1OC(=O)N(C)S(=O)(=O)Oc1c(C(C)C)cccc1C(C)C`, in assay [1], the half-maximal inhibitory concentration (IC50) is 50 µM. Besides, the “Delta TC” value in the assay on Rattus norvegicus is -64%; in assay [2], -18%.

`CCCCCCOS(=O)(=O)NC(=O)Oc1c(C(C)C)cccc1C(C)C` showed an IC50 in assay [1] of 40 µM. Also, the “Delta TC” value in the assay on Rattus norvegicus was -52%; in assay [2], -18%.

As for `Cc1cc(C)c(C)c(OC(=O)NS(=O)(=O)Oc2c(C(C)C)cccc2C(C)C)c1C`, the IC50 in assay [1] was greater than 50 µM. The “Delta TC” value in the assay with Rattus norvegicus is listed as -17%.

In the case of `CCCCCCCCCCCCN(CCCCCCCCCCCC)S(=O)(=O)NC(=O)Nc1c(C(C)C)cccc1C(C)C`, inhibition in assay [1] was half-maximal at 69 µM (IC50). Moreover, in the assay with Rattus norvegicus, the “Delta TC” value is -5%.

The compound `CC(C)c1cccc(C(C)C)c1OS(=O)(=O)NC(=O)Sc1c(C(C)C)cccc1C(C)C` returned a half-inhibitory concentration (IC50) in assay [1] of 8.7 µM. The “Delta TC” value in the assay with Rattus norvegicus is reported as -17%.

In assay [1], `CCCCCCCCCCCCOS(=O)(=O)NC(=O)Sc1c(C(C)C)cccc1C(C)C` yielded an IC50 of 48 µM. Besides, the “Delta TC” value in the assay on Rattus norvegicus is reported as -9%.

The compound `CCCCCCCCCCCCOC(=O)NS(=O)(=O)Oc1c(C(C)C)cccc1C(C)C` yielded an IC50 in assay [1] of 13 µM. Besides, the “Delta TC” value in the assay with Rattus norvegicus is -62%; in assay [2], 1%.

With `COc1cc(OC)c(OC(=O)NS(=O)(=O)Oc2c(C(C)C)cccc2C(C)C)c(OC)c1`, in assay [1], the IC50 was greater than 25 µM. In addition, in the assay on Rattus norvegicus, the “Delta TC” value is listed as -5%.

As to `CCCCCCCCCCCCCCCCOS(=O)(=O)NC(=O)Oc1c(C(C)C)cccc1C(C)C`, the IC50 in assay [1] was found to be 10.3 µM. The “Delta TC” value in the assay with Rattus norvegicus is -60%; in assay [2], -42%.

For `CC(C)c1cccc(C(C)C)c1OS(=O)(=O)NC(=O)OC1C2CC3CC(C2)CC1C3` (stereo not drawn), the half-maximal inhibitory concentration (IC50) in assay [1] was 23 µM. Besides, the “Delta TC” value with Rattus norvegicus is -36%.

`CC(C)c1cccc(C(C)C)c1OC(=O)NS(=O)(=O)Oc1c(C(C)(C)C)cccc1C(C)(C)C`: the half-inhibitory concentration (IC50) in assay [1] was determined as 50 µM. Also, the entries for the “Delta TC” value (in the assay with Rattus norvegicus; in assay [2]) were -55% and -46%, respectively.

Consider `CC(C)c1cccc(C(C)C)c1OS(=O)(=O)NC(=O)O[C@@H]1C[C@H](C)CCC1C(C)C` (stereo partly drawn), for which half-maximal inhibition in assay [1] (IC50) required 21 µM. In addition, in the assay with Rattus norvegicus, the “Delta TC” value is -40%.

With `CC(C)c1cccc(C(C)C)c1OC(=O)NS(=O)(=O)Oc1c(C(C)C)cccc1C(C)C`, half-maximal inhibition in assay [1] (IC50) required 9.4 µM. Also, in the assay on Rattus norvegicus, the “Delta TC” value is -70%.

Compound `CCCCCCCCCCCCOS(=O)(=O)[N-]C(=O)Nc1c(C(C)C)cccc1C(C)C.[Na+]` came in with an IC50 in assay [1] of 5 µM. Besides, in the assay with Rattus norvegicus, the “Delta TC” value was -60%.

The compound `CC(C)c1cccc(C(C)C)c1OC(=O)NS(=O)(=O)Oc1ccccc1` had an IC50 in assay [1] greater than 50 µM. In addition, the “Delta TC” value in the assay on Rattus norvegicus is given as -26%.

`CC(C)c1cccc(C(C)C)c1OS(=O)(=O)NC(=O)Oc1cccnc1`: the IC50 in assay [1] was greater than 50 µM. Further, in the assay on Rattus norvegicus, the “Delta TC” value was -2%.

As to `COc1cc(C(C)(C)C)c(OC(=O)[N-]S(=O)(=O)Oc2c(C(C)C)cccc2C(C)C)c(C(C)(C)C)c1.[Na+]`, the half-maximal inhibitory concentration (IC50) in assay [1] came out at 10 µM. The “Delta TC” value in the assay on Rattus norvegicus was -60%.

Take `CCCCCCC(C)OC(=O)NS(=O)(=O)Oc1c(C(C)C)cccc1C(C)C` (stereo not drawn): the IC50 in assay [1] stood at 26 µM. Moreover, the “Delta TC” value in the assay on Rattus norvegicus is given as -32%.

The compound `CC(C)c1cccc(C(C)C)c1OS(=O)(=O)NC(=O)OC1CCCCC1` showed an IC50 in assay [1] of 38 µM. In addition, the “Delta TC” value in the assay on Rattus norvegicus is given as -38%.

In the case of `CC(C)(C)c1cccc(C(C)(C)C)c1OC(=O)NS(=O)(=O)Oc1c(C(C)(C)C)cccc1C(C)(C)C`, the IC50 in assay [1] was 30 µM. In addition, the “Delta TC” value in the assay on Rattus norvegicus is listed as -18%.

The compound `COc1cccc(OC)c1OC(=O)[N-]S(=O)(=O)Oc1c(C(C)C)cccc1C(C)C.[Na+]` yielded an IC50 in assay [1] of 48 µM. Further, the “Delta TC” value with Rattus norvegicus is given as -49%.

Turning to `CC(C)c1cccc(C(C)C)c1OS(=O)(=O)NC(=O)Oc1c(F)cccc1F`, in assay [1], half-maximal inhibition (IC50) required 65 µM. In the assay on Rattus norvegicus, the “Delta TC” value was -27%.

Regarding `CC(=O)c1cc(C(C)C)c(OC(=O)NS(=O)(=O)Oc2c(C(C)C)cccc2C(C)C)c(C(C)C)c1`, the midpoint of inhibition in assay [1], the IC50, lay at 41.8 µM. The “Delta TC” value with Rattus norvegicus is -16%.

In assay [1], `Cc1cccc(C)c1OC(=O)NS(=O)(=O)Oc1c(C(C)C)cccc1C(C)C` yielded an IC50 greater than 50 µM. In addition, the “Delta TC” value in the assay with Rattus norvegicus is on record as -37%.

Take `CC(C)c1cccc(C(C)C)c1OS(=O)(=O)NC(=O)OC1[C@H](C(C)C)CCC[C@H]1C(C)C` (relative stereo): the IC50 in assay [1] came to 5.7 µM. Besides, the “Delta TC” value in the assay with Rattus norvegicus is reported as -35%.

Consider `CC(C)c1cccc(C(C)C)c1OS(=O)(=O)NC(=O)Oc1c(F)c(F)c(F)c(F)c1F`, for which the IC50 in assay [1] amounted to 66 µM. Further, in the assay on Rattus norvegicus, the “Delta TC” value is given as -5%.

As to `CC(C)c1cccc(C(C)C)c1OC(=O)NS(=O)(=O)Oc1c(C(C)C)cc(O)cc1C(C)C`, the IC50 in assay [1] was greater than 50 µM. For the same compound, the “Delta TC” value in the assay with Rattus norvegicus was -15%.

Take `CC(C)c1cccc(C(C)C)c1OS(=O)(=O)NC(=O)OC12CC3CC(CC(C3)C1)C2`: the midpoint of inhibition in assay [1], the IC50, lay at 13 µM. Further, the “Delta TC” value in the assay with Rattus norvegicus is listed as -10%.

In the case of `COc1cc(C(C)(C)C)c(OC(=O)NS(=O)(=O)Oc2c(C(C)C)cccc2C(C)C)c(C(C)(C)C)c1`, in assay [1], the IC50 turned out to be 4.8 µM. In the assay with Rattus norvegicus, the “Delta TC” value is -72%.

In turn, `CCOC(=O)NS(=O)(=O)Oc1c(C(C)C)cccc1C(C)C` came in with an IC50 in assay [1] greater than 50 µM. The “Delta TC” value with Rattus norvegicus is on record as -14%.

Turning to `CC(C)c1cccc(C(C)C)c1OS(=O)(=O)NC(=O)Oc1ccc(F)cc1F`, in assay [1], the 50% inhibitory concentration (IC50) was greater than 50 µM. In the assay with Rattus norvegicus, the “Delta TC” value was -5%.

In turn, `CC(C)c1cccc(C(C)C)c1OC(=O)NS(=O)(=O)Oc1c(F)cccc1F` had an IC50 in assay [1] of 38 µM. For the same compound, the “Delta TC” value in the assay on Rattus norvegicus was 9%.

`CC(C)c1cc(Br)cc(C(C)C)c1OC(=O)NS(=O)(=O)Oc1c(C(C)C)cccc1C(C)C` yielded an IC50 in assay [1] of 31 µM. For the same compound, in the assay with Rattus norvegicus, the “Delta TC” value is listed as -29%.

Turning to `Cc1cccc(C(C)(C)C)c1OC(=O)NS(=O)(=O)Oc1c(C(C)C)cccc1C(C)C`, in assay [1], the 50% inhibitory concentration (IC50) is 49 µM. Moreover, in the assay with Rattus norvegicus, the “Delta TC” value was -15%.

Source of the values: ChEMBL document CHEMBL1129522, “Inhibitors of acyl-CoA:cholesterol O-acyltransferase. 17. Structure-activity relationships of several series of compounds derived from N-chlorosulfonyl isocyanate” (J Med Chem, 1996).
